T/C data for 23 compounds are collected here from PubChem BioAssay AID330 (DTP/NCI, 2004).

This assay deals with P388 leukemia ip, CD2F1 mice, survival T/C. Nature of the assay: NCI In Vivo Anticancer Drug Screen. Data for tumor model P388 Leukemia (intraperitoneal) in CD2F1 (CDF1) mice. The settings on record: endpoint: median survival time, higher = longer survival. The gist of the method:
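Mice carrying the transplanted tumor received test compound or vehicle. Survival was recorded in each group, and the value is the treated-group measurement divided by that of the vehicle-treated control group.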

Where [1] appears, read: dose: 60.0 mg/kg/injection, schedule: Q01DX005 (ip), vehicle: saline with Tween-80.
Setting [2] is: dose: 120.0 mg/kg/injection, schedule: Q01DX005 (ip), vehicle: saline with Tween-80.
The mark [3] stands for this setting: dose: 240.0 mg/kg/injection, schedule: Q01DX005 (ip), vehicle: saline with Tween-80.
The mark [4] stands for this setting: dose: 50.0 mg/kg/injection, schedule: Q01DX005 (ip), vehicle: saline with Tween-80.
Where [5] appears, read: dose: 100.0 mg/kg/injection, schedule: Q01DX005 (ip), vehicle: saline with Tween-80.
Where [6] appears, read: dose: 200.0 mg/kg/injection, schedule: Q01DX005 (ip), vehicle: saline with Tween-80.
Where [7] appears, read: dose: 100.0 mg/kg/injection, schedule: Q04DX003 (ip), vehicle: saline with Tween-80.
The mark [8] stands for this setting: dose: 200.0 mg/kg/injection, schedule: Q04DX003 (ip), vehicle: saline with Tween-80.
The mark [9] stands for this setting: dose: 60.0 mg/kg/injection, schedule: Q01DX005 (ip), vehicle: Klucel (hydroxypropylcellulose) (HPC).
Where [10] appears, read: dose: 120.0 mg/kg/injection, schedule: Q01DX005 (ip), vehicle: Klucel (hydroxypropylcellulose) (HPC).
[11] abbreviates: dose: 100.0 mg/kg/injection, schedule: Q04DX003 (ip), vehicle: saline.
The mark [12] stands for this setting: dose: 200.0 mg/kg/injection, schedule: Q04DX003 (ip), vehicle: saline.
Where [13] appears, read: dose: 400.0 mg/kg/injection, schedule: Q04DX003 (ip), vehicle: saline.
Where [14] appears, read: dose: 50.0 mg/kg/injection, schedule: Q01DX009 (ip), vehicle: saline.
The mark [15] stands for this setting: dose: 100.0 mg/kg/injection, schedule: Q01DX009 (ip), vehicle: saline.
Setting [16] is: dose: 200.0 mg/kg/injection, schedule: Q01DX009 (ip), vehicle: saline.

“And” between values parts separate entries of the source, which are not always exact repeats. Identical values can stand only once. Inconclusive results and toxic doses are left out. Peptide text beside a SMILES is read from it. * marks the point of attachment. Tos = Cc1ccc(S(=O)(=O)*)cc1; Bn = c1ccc(C*)cc1

Consider `COC/C(Br)=C\SC#N` (tested in a mixture with another compound), for which the T/C is 120 % of control (dose: 3.75 mg/kg/injection, schedule: Q01DX005 (ip), vehicle: saline with Tween-80) and 122 % of control (dose: 7.5 mg/kg/injection, schedule: Q01DX005 (ip), vehicle: saline with Tween-80).

As to `CCCN1CCN(c2ccc([N+](=O)[O-])c3no[n+]([O-])c23)CC1`, the T/C (dose: 1.25 mg/kg/injection, schedule: Q01DX009 (ip), vehicle: saline) was 98 % of control and 97 % of control; the T/C (dose: 2.5 mg/kg/injection, schedule: Q01DX009 (ip), vehicle: saline) was 100 % of control and 107 % of control; the T/C (dose: 5.0 mg/kg/injection, schedule: Q01DX009 (ip), vehicle: saline) was 100 % of control and 108 % of control; the T/C (dose: 10.0 mg/kg/injection, schedule: Q01DX009 (ip), vehicle: saline) is 110 % of control and 120 % of control.

Regarding `CCOC(=O)c1ccc(N2C(=O)C(Cl)(c3ccccc3)C2c2ccco2)cc1` (stereo not drawn), the T/C is 100 % of control under setting [1], 95 % of control under setting [2] and 94 % of control under setting [3].

As to `C=c1cc2c(cc1=C)C(=O)c1ccccc1C2=O`, the T/C was 89 % of control (dose: 15.0 mg/kg/injection, schedule: Q01DX005 (ip), vehicle: saline with Tween-80); 90 % of control (dose: 30.0 mg/kg/injection, schedule: Q01DX005 (ip), vehicle: saline with Tween-80); 86 % of control and 91 % of control under setting [1]; 89 % of control under setting [3].

As to `COc1cc(NC(C)=O)c(OC)c2c(Cl)ccnc12`, the T/C (dose: 100.0 mg/kg/injection, schedule: Q01DX001 (ip), vehicle: acid diluted with saline) is 101 % of control and the T/C (dose: 200.0 mg/kg/injection, schedule: Q01DX001 (ip), vehicle: acid diluted with saline) is 99 % of control.

Take `Cc1c(N)nc(C(CC(N)=O)NCC(N)C(N)=O)nc1C(=O)NC(C(=O)NC(C)C(O)C(C)C(=O)NC(C(=O)NCCc1nc(-c2nc(C(=O)NCCCNCCCCN)cs2)cs1)C(C)O)C(OC1OC(CO)C(O)C(O)C1OC1OC(CO)C(O)C(OC(N)=O)C1O)c1cnc[nH]1` (stereo not drawn): the T/C (dose: 12.5 mg/kg/injection, schedule: Q01DX005 (ip), vehicle: saline) is 117 % of control and the T/C (dose: 100.0 mg/kg/injection, schedule: Q01DX005 (ip), vehicle: saline) is 104 % of control.

`Cc1ccc(S(=O)(=O)NC(CSCc2ccccc2)C(=O)NC(Cc2ccc(O)cc2)C(=O)O)cc1` (stereo not drawn) (Tos-Cys(Bn)-Tyr-OH; configuration not given here): the T/C reads like this: under setting [4], 103 % of control; under setting [5], 99 % of control; under setting [6], 99 % of control.

In the case of `O=C1C=CC(=O)N1CC[P+](c1ccccc1)(c1ccccc1)c1ccccc1`, the T/C was 118 % of control (dose: 0.78 mg/kg/injection, schedule: Q01DX009 (ip), vehicle: water); 102 % of control (dose: 1.56 mg/kg/injection, schedule: Q01DX009 (ip), vehicle: water); 106 % of control (dose: 3.13 mg/kg/injection, schedule: Q01DX009 (ip), vehicle: water); 105 % of control (dose: 6.25 mg/kg/injection, schedule: Q01DX009 (ip), vehicle: water); 112 % of control (dose: 12.5 mg/kg/injection, schedule: Q01DX009 (ip), vehicle: water); 112 % of control and 120 % of control (dose: 25.0 mg/kg/injection, schedule: Q01DX009 (ip), vehicle: water).

In the case of `CCOC(=O)/C(C#N)=C/NCCc1c[nH]c2ccccc12`, the T/C is 102 % of control (dose: 50.0 mg/kg/injection, schedule: Q01DX005 (ip), vehicle: Klucel (hydroxypropylcellulose) (HPC)); 103 % of control (dose: 100.0 mg/kg/injection, schedule: Q01DX005 (ip), vehicle: Klucel (hydroxypropylcellulose) (HPC)); 94 % of control (dose: 200.0 mg/kg/injection, schedule: Q01DX005 (ip), vehicle: Klucel (hydroxypropylcellulose) (HPC)).

For `CC1(OC(=O)Nc2ccccc2)CCCCC1`, the T/C under setting [7] was 96 % of control; the T/C under setting [8] is 100 % of control; the T/C (dose: 400.0 mg/kg/injection, schedule: Q04DX003 (ip), vehicle: saline with Tween-80) is 97 % of control.

Consider `CCOC(=O)c1ccc(NC(=O)CCOc2ccccc2)cc1`, for which the T/C under setting [9] is 88 % of control; the T/C under setting [10] is 88 % of control; the T/C (dose: 240.0 mg/kg/injection, schedule: Q01DX005 (ip), vehicle: Klucel (hydroxypropylcellulose) (HPC)) was 87 % of control.

With `COC(=O)C1=NC(=O)C(C#N)=C(C(=O)OC)C1(C(=O)c1ccc(OC)cc1)c1ccc(OC)cc1` (stereo not drawn), the T/C reads like this: under setting [9], 95 % of control; under setting [10], 91 % of control.

As to `O=c1[nH]cc(N(CCCl)CCCl)c(=O)[nH]1`, the T/C reads like this: (dose: 0.05 mg/kg/injection, schedule: Q01DX009 (ip), vehicle: saline with Tween-80) 109 % of control; (dose: 0.08 mg/kg/injection, schedule: Q01DX009 (ip), vehicle: saline with Tween-80) 109 % of control; (dose: 0.39 mg/kg/injection, schedule: Q01DX009 (ip), vehicle: saline with Tween-80) 181 % of control; (dose: 0.65 mg/kg/injection, schedule: Q01DX009 (ip), vehicle: saline with Tween-80) 181 % of control; (dose: 1.1 mg/kg/injection, schedule: Q01DX009 (ip), vehicle: saline with Tween-80) 236 % of control; (dose: 1.8 mg/kg/injection, schedule: Q01DX009 (ip), vehicle: saline with Tween-80) 227 % of control. For the same compound, the T/C (dose: 3.0 mg/kg/injection, schedule: Q01DX009 (ip), vehicle: saline with Tween-80) was 118 % of control.

Take `CC1(C)COC(=O)/C1=C1\SC(=O)NC1=O`: the T/C by setting is: under setting [11], 95 % of control; under setting [12], 94 % of control; under setting [13], 102 % of control.

As for `Clc1ccccc1-c1nnc(-c2cccc(-c3nnc(-c4ccccc4Cl)s3)c2)s1`, the T/C runs as follows: under setting [4], 91 % of control; under setting [5], 89 % of control; under setting [6], 90 % of control.

Take `N=C(N)SCc1csc(N)n1`: the T/C is, setting by setting: (dose: 25.0 mg/kg/injection, schedule: Q01DX009 (ip), vehicle: saline) 105 % of control; under setting [14], 102 % of control; under setting [15], 109 % of control; under setting [16], 108 % of control.

With `CCOC(=O)N[N+]12CCN(CC1)CC2`, the T/C runs as follows: under setting [11], 100 % of control; under setting [12], 102 % of control; under setting [13], 102 % of control.

For `CSC(=N\N=C\c1c(F)cccc1Cl)/N=C/N(C)C`, the T/C is 95 % of control under setting [1], 101 % of control under setting [2] and 103 % of control under setting [3].

As to `CC1=CC(=O)C2OC2C1=O` (stereo not drawn), the T/C (dose: 5.0 mg/kg/injection, schedule: Q04DX002 (ip), vehicle: saline with Tween-80) was 101 % of control.

`CN(C)CCNc1ccc(O)c2sc3ccccc3c(=O)c12`: the T/C is, setting by setting: under setting [7], 94 % of control; under setting [8], 90 % of control.

Regarding `CC1N=C(SCc2ccc(Cl)cc2)N2C(C)N=C(SCc3ccc(Cl)cc3)N12` (stereo not drawn), the T/C under setting [14] is 112 % of control, the T/C under setting [15] was 110 % of control and the T/C under setting [16] was 104 % of control.

As for `CCN(CC)CCn1cnc2c(=S)[nH]c(=S)[nH]c21`, the T/C is 95 % of control (dose: 100.0 mg/kg/injection, schedule: Q01DX001 (ip), vehicle: saline with Tween-80); 97 % of control (dose: 200.0 mg/kg/injection, schedule: Q01DX001 (ip), vehicle: saline with Tween-80); 97 % of control (dose: 400.0 mg/kg/injection, schedule: Q01DX001 (ip), vehicle: saline with Tween-80).

`CC(C)N1CSC(=S)N(Cc2ccccc2)C1`: the T/C is, setting by setting: (dose: 25.0 mg/kg/injection, schedule: Q01DX009 (ip), vehicle: saline with Tween-80) 107 % of control; (dose: 50.0 mg/kg/injection, schedule: Q01DX009 (ip), vehicle: saline with Tween-80) 97 % of control and 98 % of control; (dose: 100.0 mg/kg/injection, schedule: Q01DX009 (ip), vehicle: saline with Tween-80) 93 % of control and 98 % of control; (dose: 200.0 mg/kg/injection, schedule: Q01DX009 (ip), vehicle: saline with Tween-80) 89 % of control.
